Patent publication US10912814B2, “Combination formulation of three antiviral compounds” (priority 2016, dated 2021)

Key:
[1] = Photostability (light exposure, ICH Q1B); assay type: physicochemical; settings: for Total Imp./Deg. Products (%): tablets
Procedure: In some embodiments, and the Examples presented herein, the tablet formulation includes sofosbuvir having Form 6 and, optionally, a trace amount of Form 7.
Tablet cores and film-coated tablets were evaluated per ICH Q1B guidelines with a total of illumination of more than 1.2 million-lux hours and a total irradiance of more than 200 W·hr/m^2.

[2] = Storage stability: appearance, assay/label strength (LS), total impurities/degradation products; assay type: physicochemical
Procedure: In some embodiments, the film-coated tablets were packaged in 75 and 100 mL white HDPE bottles (Lots A and B, respectively, as described in Tables 11A, 11B) with 1 g silica gel desiccant canisters and a polyester fiber coil. The 75 and 100 mL HDPE bottles contained fourteen and twenty eight tablets, respectively. Each HDPE bottle was capped using a white, continuous thread, child-resistant polypropylene screw cap with an […], aluminum-faced line. The packaged tablets (14 and 28 counts) were evaluated for stability at 40° C./75% RH and 25° C./60% RH. Additionally, the 14-count bottles (without cap) were evaluated for stability under open conditions at 40° C./75% RH.
For each of the impact studies, the sofosbuvir/velpatasvir SSD/voxilaprevir SSD tablets were packaged in a designated commercial packaging configuration (28-count, 100 mL HPDE bottle, coil, 1 g desiccant), and stored for 12 weeks at 25° C./60% RH and 40° C./75% RH. Tablets were also packaged in open containers (28-count, 100 mL HPDE bottle without cap) and stored for 4 weeks at 40° C./75% RH and for 1 week at 50° C./92% RH.
The sofosbuvir/velpatasvir SSD/voxilaprevir SSD tablets were packaged in the designated commercial packaging configuration (28-count, 100 mL HPDE bottle, coil, 1 g desiccant), and stored for 6 months at 25° C./60% RH and 40° C./75% RH.

CC(C)OC(=O)C(C)N[P@](=O)(OC[C@H]1O[C@@H](n2ccc(=O)[nH]c2=O)[C@](C)(F)[C@@H]1O)Oc1ccccc1 (stereo in doubt) [Sofosbuvir, (S)-isopropyl 2-(((S)-(((2R,3R,4R,5R)-5-(2,4-dioxo-3,4-dihydropyrimidin-1(2H)-yl)-4-fluoro-3-hydroxy-4-methyltetrahydrofuran-2-yl)methoxy)(phenoxy)phosphoryl)amino)propanoate]
0.0%: level of degradation products ([1]; tablets film-coated to weight gains of 2.1 to 5.4%, ICH Q1B) | Total Imp./Deg. Products (%) ([1]; film-coating 0% weight gain, Exposed to Light) | Total Imp./Deg. Products (%) ([1]; film-coating 0% weight gain, Protected from Light) | Total Imp./Deg. Products (%) ([1]; film-coating 2.1% weight gain, Exposed to Light) | Total Imp./Deg. Products (%) ([1]; film-coating 2.1% weight gain, Protected from Light) | Total Imp./Deg. Products (%) ([1]; film-coating 3.4% weight gain, Exposed to Light) | Total Imp./Deg. Products (%) ([1]; film-coating 3.4% weight gain, Protected from Light) | Total Imp./Deg. Products (%) ([1]; film-coating 4.1% weight gain, Exposed to Light) | Total Imp./Deg. Products (%) ([1]; film-coating 4.1% weight gain, Protected from Light) | Total Imp./Deg. Products (%) ([1]; film-coating 5.4% weight gain, Exposed to Light) | Total Imp./Deg. Products (%) ([1]; film-coating 5.4% weight gain, Protected from Light) | Total Imp./Deg. (%) ([2]; Batch C tablets, closed 1 g desiccant, 25° C./60% RH, 3 months) | Total Imp./Deg. (%) ([2]; Batch C tablets, closed 1 g desiccant, 25° C./60% RH, 6 months) | Total Imp./Deg. (%) ([2]; Batch C tablets, closed 1 g desiccant, 30° C./75% RH, 3 months) | Total Imp./Deg. (%) ([2]; Batch C tablets, closed 1 g desiccant, 30° C./75% RH, 6 months) | Total Imp./Deg. (%) ([2]; Batch C tablets, closed 1 g desiccant, 40° C./75% RH, 1 month) | Total Imp./Deg. (%) ([2]; Batch C tablets, closed 1 g desiccant, 40° C./75% RH, 3 months) | Total Imp./Deg. (%) ([2]; Batch C tablets, closed 1 g desiccant, 40° C./75% RH, 6 months) | Total Imp./Deg. (%) ([2]; Batch C tablets, closed 1 g desiccant, Initial, time 0) | Total Imp./Deg. Products (%) ([2]; SOF/VEL SSD/VOX SSD granules (Lot F), glass vials, Initial, 0 months) | total impurities/degradation products ([2]; desiccant/packaging study tablets, all conditions, 6 months) | total impurities/degradation products ([2]; granules (Lot F), over 6 month storage at 25° C./60% RH and 40° C./75% RH, open and closed) | total impurities/degradation products ([2]; packaged Formulation G tablets (Tables 11A, 11B), 40° C./75% RH and 25° C./60% RH for 6 months) | total impurities/degradation products ([2]; packaged tablets Batch A, up to 6 months under all conditions) | total impurities/degradation products ([2]; packaged tablets Batch D, up to 1 month under all conditions) | total impurities/degradation products ([2]; packaged tablets Batches B and C, up to 6 months under all conditions) | total impurities/degradation products ([2]; tablet Lots A-D from sub-potent/super-potent VEL SSD and VOX SSD, all conditions) | Total Imp./Deg. (%) ([2]; tablets Batch A, 25° C./60% RH, 3 mo) | Total Imp./Deg. (%) ([2]; tablets Batch A, 25° C./60% RH, 6 mo) | Total Imp./Deg. (%) ([2]; tablets Batch A, 30° C./75% RH, 3 mo) | Total Imp./Deg. (%) ([2]; tablets Batch A, 30° C./75% RH, 6 mo) | Total Imp./Deg. (%) ([2]; tablets Batch A, 40° C./75% RH, 1 mo) | Total Imp./Deg. (%) ([2]; tablets Batch A, 40° C./75% RH, 3 mo) | Total Imp./Deg. (%) ([2]; tablets Batch A, 40° C./75% RH, 6 mo) | Total Imp./Deg. (%) ([2]; tablets Batch A, Initial, 0 mo) | Total Imp./Deg. (%) ([2]; tablets Batch B, 25° C./60% RH, 3 mo) | Total Imp./Deg. (%) ([2]; tablets Batch B, 25° C./60% RH, 6 mo) | Total Imp./Deg. (%) ([2]; tablets Batch B, 30° C./75% RH, 3 mo) | Total Imp./Deg. (%) ([2]; tablets Batch B, 30° C./75% RH, 6 mo) | Total Imp./Deg. (%) ([2]; tablets Batch B, 40° C./75% RH, 1 mo) | Total Imp./Deg. (%) ([2]; tablets Batch B, 40° C./75% RH, 3 mo) | Total Imp./Deg. (%) ([2]; tablets Batch B, 40° C./75% RH, 6 mo) | Total Imp./Deg. (%) ([2]; tablets Batch B, Initial, 0 mo) | Total Imp./Deg. (%) ([2]; tablets Batch D, 40° C./75% RH, 1 mo) | Total Imp./Deg. (%) ([2]; tablets Batch D, Initial, 0 mo) | Total Imp./Deg. (%) ([2]; tablets Lot A, 25° C./60% RH Closed, 1 mo) | Total Imp./Deg. (%) ([2]; tablets Lot A, 25° C./60% RH Closed, 3 mo) | Total Imp./Deg. (%) ([2]; tablets Lot A, 25° C./60% RH Closed, 6 mo) | Total Imp./Deg. (%) ([2]; tablets Lot A, 40° C./75% RH Closed, 1 mo) | Total Imp./Deg. (%) ([2]; tablets Lot A, 40° C./75% RH Closed, 3 mo) | Total Imp./Deg. (%) ([2]; tablets Lot A, 40° C./75% RH Closed, 6 mo) | Total Imp./Deg. (%) ([2]; tablets Lot A, 40° C./75% RH Open, 1 mo) | Total Imp./Deg. (%) ([2]; tablets Lot A, 40° C./75% RH Open, 3 mo) | Total Imp./Deg. (%) ([2]; tablets Lot A, 40° C./75% RH Open, 6 mo) | Total Imp./Deg. (%) ([2]; tablets Lot A, Initial, 0 mo) | Total Imp./Deg. (%) ([2]; tablets Lot B, 25° C./60% RH Closed, 1 mo) | Total Imp./Deg. (%) ([2]; tablets Lot B, 25° C./60% RH Closed, 3 mo) | Total Imp./Deg. (%) ([2]; tablets Lot B, 25° C./60% RH Closed, 6 mo) | Total Imp./Deg. (%) ([2]; tablets Lot B, 40° C./75% RH Closed, 1 mo) | Total Imp./Deg. (%) ([2]; tablets Lot B, 40° C./75% RH Closed, 3 mo) | Total Imp./Deg. (%) ([2]; tablets Lot B, 40° C./75% RH Closed, 6 mo) | Total Imp./Deg. (%) ([2]; tablets Lot B, Initial, 0 mo) | total impurities/degradation products ([2]; tablets from SSDs made with high-peroxide copovidone (544 ppm VEL SSD, 655 ppm VOX SSD)) | Total Imp./Deg. (%) ([2]; tablets from VEL SSD 7.0% / VOX SSD 3.2% water content, Initial, time 0) | Total Imp./Deg. (%) ([2]; tablets from VEL SSD 7.0% / VOX SSD 3.2% water content, closed, 1 g desiccant, 25° C./60% RH, 12 weeks) | Total Imp./Deg. (%) ([2]; tablets from VEL SSD 7.0% / VOX SSD 3.2% water content, closed, 1 g desiccant, 40° C./75% RH, 4 weeks) | Total Imp./Deg. (%) ([2]; tablets from VEL SSD 7.0% / VOX SSD 3.2% water content, closed, 1 g desiccant, 40° C./75% RH, 12 weeks)
